Results on three molecules are retold here after ChEMBL document CHEMBL2429847, “Inhibitors of PI3Kβ as Potential Treatment for Cancer” (ACS Med Chem Lett, 2013).

Assay [1] deals with Phosphatidylinositol 4,5-bisphosphate 3-kinase catalytic subunit beta isoform (Homo sapiens, UniProt P42338). Kind of assay: Inhibition of PI3Kbeta-mediated AKT phosphorylation at Ser473 in PTEN-deficient human MDA-MB-468 cells after 30 mins. It is filed as cell-based.
A further assay deals with MDA-MB-468. Kind of assay: Antiproliferative activity against PTEN-deficient human MDA-MB-468 cells after 6 days by Alamar blue assay. In kind it is functional, cell-based. The following applies: MDA-MB-468, 144 h.

Phosphatidylinositol 4,5-bisphosphate 3-kinase catalytic subunit beta isoform, sequence (P42338 whole entry, canonical isoform): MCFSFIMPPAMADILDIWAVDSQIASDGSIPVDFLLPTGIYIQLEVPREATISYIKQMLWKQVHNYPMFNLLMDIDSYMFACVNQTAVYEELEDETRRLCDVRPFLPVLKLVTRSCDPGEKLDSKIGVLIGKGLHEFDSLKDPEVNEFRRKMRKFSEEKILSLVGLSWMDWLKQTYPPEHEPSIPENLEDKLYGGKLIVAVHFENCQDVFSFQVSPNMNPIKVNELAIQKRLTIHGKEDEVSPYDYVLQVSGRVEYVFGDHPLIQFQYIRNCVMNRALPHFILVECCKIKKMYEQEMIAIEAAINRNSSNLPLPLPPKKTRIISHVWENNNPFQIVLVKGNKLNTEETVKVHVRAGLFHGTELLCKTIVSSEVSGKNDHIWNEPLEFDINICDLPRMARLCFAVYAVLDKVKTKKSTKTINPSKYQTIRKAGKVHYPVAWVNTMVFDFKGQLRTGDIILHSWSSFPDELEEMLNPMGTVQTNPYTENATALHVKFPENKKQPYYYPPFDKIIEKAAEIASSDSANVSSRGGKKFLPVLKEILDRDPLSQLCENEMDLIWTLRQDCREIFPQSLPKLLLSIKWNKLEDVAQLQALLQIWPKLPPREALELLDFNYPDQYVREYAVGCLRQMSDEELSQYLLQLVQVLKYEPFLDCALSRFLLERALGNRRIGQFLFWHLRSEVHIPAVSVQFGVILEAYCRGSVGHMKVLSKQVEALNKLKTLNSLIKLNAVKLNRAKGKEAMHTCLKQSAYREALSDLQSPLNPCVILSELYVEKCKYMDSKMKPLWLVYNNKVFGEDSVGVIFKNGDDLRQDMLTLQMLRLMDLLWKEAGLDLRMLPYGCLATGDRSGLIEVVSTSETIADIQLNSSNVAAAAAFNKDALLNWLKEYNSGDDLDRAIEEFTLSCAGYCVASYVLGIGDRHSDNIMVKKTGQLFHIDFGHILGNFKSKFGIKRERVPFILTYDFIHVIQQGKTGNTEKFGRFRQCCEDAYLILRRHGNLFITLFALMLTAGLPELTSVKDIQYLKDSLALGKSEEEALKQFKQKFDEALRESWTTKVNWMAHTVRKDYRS

`Cc1c(Cl)cccc1Cn1c(C)nc2c(C(=O)O)cc(N3CCOCC3)nc21` had an IC50 in assay [1] of 15.9 nM. Besides, the EC50 in the assay with MDA-MB-468 came to 18.1 nM.
`Cc1nc2c(C(=O)O)cc(N3CCOCC3)nc2n1Cc1cccc(Cl)c1Cl` showed an IC50 in assay [1] of 41.4 nM. In the assay with MDA-MB-468, this molecule displayed an EC50 of 153 nM.
On the same counts, the results for `Cc1c(Cn2c(C)nc3c(C(=O)O)cc(N4CCOCC4)nc32)cccc1C(F)(F)F` are 436 nM and 41 nM.
